{"source": "patent US20030040510A1", "about": "“Selective estrogen receptor modulators in combination with estrogens” (Endorecherche, Inc., priority 2000, published 2003)", "key": {"[1]": {"tested_on": "rat mammary gland and endometrium", "assay": "12-week EM-800 treatment of intact rats: serum 17β-estradiol, mammary gland, endometrium", "format": "in vivo", "settings": "12 weeks", "experimental": "B. Animal treated with EM-800 (0.5 mg/kg, b w per day) for 12 weeks. […] Insert.\nB. Animal treated with EM-800 (0.5 mg/kg, b w per day) during 12 weeks."}, "[2]": {"tested_on": "bone metabolism in the rat", "settings": "cited from earlier work"}, "ovariectomized rats": {"tested_on": "ovariectomized rats", "assay": "5-diol alone or with Flutamide and/or EM-800 for 12 months in ovariectomized rats (bone mass, serum markers)"}, "[3]": {"tested_on": "breast and endometrial tissues", "assay": "Antiestrogens tested for SERM function and estrogenic activity in breast and endometrium", "source_text": "As used herein, a selective estrogen receptor modulator (SERM) is a compound that either directly or through its active metabolite functions as an estrogen receptor antagonist (“antiestrogen”) in breast tissue, yet provides estrogenic or estrogen-like effect on bone tissue and on serum cholesterol levels (i.e. by reducing serum cholesterol). Non-steroidal compounds that function as estrogen receptor antagonists in vitro or in human or rat breast tissue (especially if the compound acts as an antiestrogen on human breast cancer cells) is likely to function as a SERM. Conversely, steroidal antiestrogens tend not to function as SERMs because they tend not to display any beneficial effect on serum cholesterol. […] These SERMs may be called “pure SERMs”. […] This second series of SERMs may be called “mixed SERMs”. The unwanted estrogenic activities of these “mixed SERMs”, may be inhibited by addition of pure “SERMs” as shown in FIGS. 6 and 7 in in vitro tests and in FIG. 9 in an in vivo test of breast cancer."}, "[4]": {"tested_on": "ZR-75-1 breast tumor xenografts", "assay": "Growth of human ZR-75-1 breast tumor xenografts in OVX nude mice supplemented with estrone (DHEA, EM-800; Example 1)", "settings": "OVX + E1; for Inhibition of E1-stimulated ZR-75-1 tumor size / Average tumor weight: 9.5 months"}, "[5]": {"tested_on": "bone metabolism in the rat", "assay": "Biochemical parameters of bone metabolism (urine, serum) after DHEA and/or EM-800", "format": "in vivo", "settings": "DHEA 10 mg, EM-800 75 μg", "source_text": "Data are expressed as the means±SEM.**: P<0.01 experimental versus respective control.\nIt is particularly important to indicate that the combination of DHEA and EM-800 exerted unexpected beneficial effects on important biochemical parameters of bone metabolism. […] Moreover, no effect of DHEA could be detected on daily urinary calcium or phosphorus excretion (Luo et al., Endocrinology 138: 4435-4444, 1997). EM-800, decreased the urinary hydroxyproline/creatinine ratio by 48% while, similarly to DHEA, no effect of EM-800 was seen on urinary calcium or phosphorus excretion. EM-800, moreover, had no effect on serum alkaline phosphatase activity, a marker of bone formation while DHEA increased the value of the parameter by about 75% (Luo et al., Endocrinology 138: 4435-4444, 1997)."}, "[6]": {"tested_on": "uterus and vagina of ovariectomized nude mice", "assay": "Uterine, vaginal and body weight in the xenograft-bearing OVX nude mice (Example 1)", "settings": "OVX + E1"}, "[7]": {"assay": "Concentration of EM-652 in the circulation, 6-month rat study", "format": "in vivo", "settings": "intact rats, EM-652 0.5 mg/kg daily, 6-month study"}, "[8]": {"settings": "EM-800 0.5 mg/kg per day, 0.5 mg/kg/day"}}, "note": "Where “and” joins values, the source holds several entries; their conditions need not be identical. Equal values may be shown once. Entries after “also recorded” stand apart in the source; their conditions may differ. Marks after values point to notes of the source that are not given here."}
{"smiles": "CC1=C(c2ccc(OC(=O)C(C)(C)C)cc2)[C@H](c2ccc(OCCN3CCCCC3)cc2)Oc2cc(OC(=O)C(C)(C)C)ccc21", "note": "[EM-800, (+)-7-pivaloyloxy-3-(4′-pivaloyloxyphenyl)-4-methyl-2-(4″-(2′″-piperidinoethoxy)phenyl)-2H-benzopyran]", "values": [{"measurement": "Elevation of circulating 17β-estradiol vs intact animals", "setting": "[1]; EM-800 0.5 mg/kg orally daily", "result": 50, "unit": "%"}, {"measurement": "Endometrium histology", "setting": "[1]; [8]", "result": "luminal epithelium is markedly reduced in height; also recorded: marked atrophy of the endometrium"}, {"measurement": "Mammary gland histology", "setting": "[1]; [8]", "result": "lobules (L) are reduced in size; also recorded: marked atrophy of the mammary gland"}, {"measurement": "Circulating levels of 17β-estradiol", "setting": "[1]; intact rats, EM-800 0.5 mg/kg orally daily", "result": "143.5 ± 7.8", "unit": "pg/mL"}, {"measurement": "Decrease of urinary hydroxyproline/creatinine ratio", "setting": "[2]", "result": 48, "unit": "%"}, {"measurement": "Effect on daily urinary calcium or phosphorus excretion", "setting": "[2]", "result": "no effect"}, {"measurement": "Increase of serum alkaline phosphatase activity", "setting": "[2]", "result": "had no effect"}, {"measurement": "Additional stimulation of femoral BMD compared to 5-diol alone", "setting": "ovariectomized rats; EM-800 100 μg s.c. daily added to 5-diol", "result": 28.4, "unit": "%"}, {"measurement": "Effect on 5-diol action on bone volume, trabecular number and trabecular separation (histomorphometry)", "setting": "ovariectomized rats; added to 5-diol, proximal tibia", "result": "further enhanced"}, {"measurement": "Decrease of serum cholesterol", "setting": "ovariectomized rats; addition of EM-800 to 5-diol", "result": 62, "unit": "%"}, {"measurement": "Function as SERM", "setting": "[3]", "result": "found to function as SERMs"}, {"measurement": "Estrogenic activity in breast and endometrial tissues", "setting": "[3]; physiological or pharmacological concentrations", "result": "do not have any estrogenic activity"}, {"measurement": "Inhibition of E1-stimulated ZR-75-1 tumor size", "setting": "[4]; EM-800 15 μg oral daily", "result": "88% and 87.5%"}, {"measurement": "Inhibition of E1-stimulated ZR-75-1 tumor size", "setting": "[4]; EM-800 50 μg oral daily", "result": "93% and 93.5%"}, {"measurement": "Inhibition of E1-stimulated ZR-75-1 tumor size", "setting": "[4]; EM-800 100 μg oral daily", "result": 94, "unit": "%"}, {"measurement": "Category of response: Partial", "setting": "[4]; EM-800 15 μg", "result": "1 (5.9) Number and (%)"}, {"measurement": "Category of response: Stable", "setting": "[4]; EM-800 15 μg", "result": "5 (29.4) Number and (%)"}, {"measurement": "Average tumor weight", "setting": "[4]; EM-800 15 μg", "result": "0.08 ± 0.03", "unit": "g"}, {"measurement": "Category of response: Complete", "setting": "[4]; EM-800 50 μg", "result": "4 (25.0) Number and (%)"}, {"measurement": "Category of response: Partial", "setting": "[4]; EM-800 50 μg", "result": "3 (18.8) Number and (%)"}, {"measurement": "Category of response: Progression", "setting": "[4]; EM-800 50 μg", "result": "4 (25.0) Number and (%)"}, {"measurement": "Category of response: Stable", "setting": "[4]; EM-800 50 μg", "result": "5 (31.2) Number and (%)"}, {"measurement": "Average tumor weight", "setting": "[4]; EM-800 50 μg", "result": "0.03 ± 0.01", "unit": "g"}, {"measurement": "Category of response: Complete", "setting": "[4]; EM-800 100 μg", "result": "8 (50.0) Number and (%)"}, {"measurement": "Category of response: Partial", "setting": "[4]; EM-800 100 μg", "result": "0 (0) Number and (%)"}, {"measurement": "Category of response: Progression", "setting": "[4]; EM-800 100 μg", "result": "5 (31.2) Number and (%)"}, {"measurement": "Category of response: Stable", "setting": "[4]; EM-800 100 μg", "result": "3 (18.8) Number and (%)"}, {"measurement": "Average tumor weight", "setting": "[4]; EM-800 100 μg", "result": "0.04 ± 0.03", "unit": "g"}, {"measurement": "Serum tALP", "setting": "[5]", "result": "114.11 ± 11.26", "unit": "IU/L"}, {"measurement": "Urine HP/Cr", "setting": "[5]", "result": "6.81 ± 0.84** μmol/mmol"}, {"measurement": "Urine calcium", "setting": "[5]", "result": "17.44 ± 4.5", "unit": "μmol/24h/100g"}, {"measurement": "Urine phosphorus", "setting": "[5]", "result": "102.03 ± 25.13", "unit": "μmol/24h/100g"}, {"measurement": "Uterine weight", "setting": "[6]; EM-800 15 μg", "result": "49 ± 3", "unit": "mg"}, {"measurement": "Vaginal weight", "setting": "[6]; EM-800 15 μg", "result": "23 ± 1", "unit": "mg"}, {"measurement": "Uterine weight", "setting": "[6]; EM-800 50 μg", "result": "36 ± 2", "unit": "mg"}, {"measurement": "Vaginal weight", "setting": "[6]; EM-800 50 μg", "result": "15 ± 1", "unit": "mg"}, {"measurement": "Uterine weight", "setting": "[6]; EM-800 100 μg", "result": "32 ± 1", "unit": "mg"}, {"measurement": "Vaginal weight", "setting": "[6]; EM-800 100 μg", "result": "11 ± 1", "unit": "mg"}]}
{"smiles": "CC1=C(c2ccc(O)cc2)[C@H](c2ccc(OCCN3CCCCC3)cc2)Oc2cc(O)ccc21", "note": "[EM-652]", "values": [{"measurement": "concentration at 6 months", "setting": "[7]", "result": 0.4, "unit": "ng/mL"}]}
